Assay results: patent US11667632B2, “2-(1H-indazol-3-yl)-3H-imidazo[4,5-C]pyridines and their anti-inflammatory uses thereof” (BioSplice Therapeutics, Inc., priority 2015, dated 2023)

System: IL-6
Assay: Inhibition of IL-6 in LPS-stimulated human monocyte cells (THP-1), HTRF
Format: cell-based
Conditions: Homo sapiens; THP-1 cells, LPS 500 ng/mL, IL-6 by HTRF
Procedure: Human Monocyte Cell Culture: A human monocyte cell line (THP-1 cells; Catalog #TIB-202, ATCC, Manassas, Va.) was cultured in Roswell Park Memorial Institute (RPMI) 1640 Medium (Catalog #21870-100, Buffalo, N.Y.) with 1% L-glutamine, 1% HEPES, 1% sodium pyruvate, 2% sodium bicarbonate supplemented with 100 units/mL penicillin, 50 μg/mL streptomycin, 2-mercaptoethanol (0.05 mM) [basal medium] and 10% fetal bovine serum (Catalog #16140089, Life Technologies, Carlsbad, Calif.) at 37° C. and 5% CO2.
Compound Screening: THP-1 cells were cultured in basal media with 1% FBS for 24 hours before the start of the assay. Each compound of Formula (I) was dissolved in DMSO as a 10 mM stock and used to prepare compound source plates. Serial dilution (1:3, 10-point dose-response curves starting from 10 μM) and compound transfer was performed using the ECHO 550 (Labcyte, Sunnyvale, Calif.) into 384-well white low volume assay plates (Greiner Bio-One) with appropriate DMSO backfill for a final DMSO concentration of 0.1%. THP-1 cells were plated at 5000 cells/well in the 384-well plates and incubated at 37° C. for 2 h. 500 ng/mL of LPS was added after 2 hours and cells were incubated for another 22 hours at 37° C. Plates were spun in a centrifuge for 1 minute at 10,000 rpm and a mixture of anti-IL-6 XL665, and anti-IL-6 Cryptate diluted in reconstitution buffer (Cisbio Inc.) was added to each well. Following incubation for 3 hrs at room temperature, homogeneous time-resolved fluorescence (HTRF) was measured using the Envision (Perkin Elmer) at 665 nm and […]. The ratio of fluorescence at 665 nm to 620 nm was used as a readout for IL-6 quantification. All samples were processed in duplicate. Readings were normalized to DMSO treated cells and normalized activities were utilized for EC50 calculations using the dose-response log (inhibitor) vs. response -variable slope (four parameters) nonlinear regression feature available in GraphPad Prism 5.0 (or Dotmatics). For EC50 of >10 μM, the percent inhibition at 10 μM is provided.

Row | SMILES | EC50 [nM]
1 | Nc1cncc(-c2ccc3[nH]nc(-c4nc5c(-c6ccsc6)cncc5[nH]4)c3c2)c1 [Compound 291] | 11
2 | CC(C)(C)C(=O)Nc1cncc(-c2ccc3[nH]nc(-c4nc5c(N6CCCCC6)cncc5[nH]4)c3c2)c1 [Compound 205] | 16
3 | CC(C)C(=O)Nc1cncc(-c2ccc3[nH]nc(-c4nc5c(-c6ccccc6F)cncc5[nH]4)c3c2)c1 [Compound 31] | 14
4 | CCCCC(=O)Nc1cncc(-c2ccc3[nH]nc(-c4nc5c(-c6ccoc6)cncc5[nH]4)c3c2)c1 [Compound 329] | 58
5 | Fc1cccc(-c2cncc3[nH]c(-c4n[nH]c5ccc(-c6cncc(CN7CCC(F)(F)C7)c6)cc45)nc23)c1 [Compound 336] | 71
6 | c1cncc(-c2ccc3[nH]nc(-c4nc5c(N6CCOCC6)cncc5[nH]4)c3c2)c1 [Compound 6] | 232
7 | Cc1ccncc1-c1ccc2[nH]nc(-c3nc4c(N5CCCCC5)cncc4[nH]3)c2c1 [Compound 202] | 1220
8 | c1cc(-c2cncc3[nH]c(-c4n[nH]c5ccc(-c6cncc(CN7CCCCC7)c6)cc45)nc23)ccn1 [Compound 164] | 433
9 | CN1CCN(c2cncc3[nH]c(-c4n[nH]c5ccc(-c6cncc(NC(=O)C7CCCCC7)c6)cc45)nc23)CC1 [Compound 263] | 224
10 | CC(C)CC(=O)Nc1cncc(-c2ccc3[nH]nc(-c4nc5c(N6CCN(C)CC6)cncc5[nH]4)c3c2)c1 [Compound 1] | 451
11 | CN1CCN(c2cncc(-c3ccc4[nH]nc(-c5nc6ccncc6[nH]5)c4c3)c2)CC1 [Compound 7] | 2430
12 | CN(C)Cc1cncc(-c2ccc3[nH]nc(-c4nc5c(-c6cccc(F)c6)cncc5[nH]4)c3c2)c1 [Compound 89] | 44
13 | c1cncc(-c2ccc3[nH]nc(-c4nc5c(-c6cccnc6)cncc5[nH]4)c3c2)c1 [Compound 136] | 125
14 | O=C(Cc1ccccc1)Nc1cncc(-c2ccc3[nH]nc(-c4nc5c(-c6ccoc6)cncc5[nH]4)c3c2)c1 [Compound 321] | 697
15 | O=C(Cc1ccccc1)Nc1cncc(-c2ccc3[nH]nc(-c4nc5c(-c6cccc(F)c6)cncc5[nH]4)c3c2)c1 [Compound 86] | 42
16 | c1cncc(-c2ccc3[nH]nc(-c4nc5c(-c6ccoc6)cncc5[nH]4)c3c2)c1 [Compound 315] | 207
17 | O=C(Nc1cncc(-c2ccc3[nH]nc(-c4nc5c(-c6ccc(F)cc6)cncc5[nH]4)c3c2)c1)c1ccccc1 [Compound 104] | 7240
18 | Fc1ccccc1-c1cncc2[nH]c(-c3n[nH]c4ccc(-c5cncc(CN6CCCCC6)c5)cc34)nc12 [Compound 127] | 138
19 | CCC(=O)Nc1cncc(-c2ccc3[nH]nc(-c4nc5c(-c6ccsc6)cncc5[nH]4)c3c2)c1 [Compound 289] | 16
20 | O=C(Nc1cncc(-c2ccc3[nH]nc(-c4nc5c(-c6cccc(F)c6)cncc5[nH]4)c3c2)c1)C1CCCCC1 [Compound 94] | 19
21 | CCC(=O)Nc1cncc(-c2ccc3[nH]nc(-c4nc5c(-c6cccc(F)c6)cncc5[nH]4)c3c2)c1 [Compound 24] | 19
22 | CC(C)(C)CC(=O)Nc1cncc(-c2ccc3[nH]nc(-c4nc5c(-c6ccsc6)cncc5[nH]4)c3c2)c1 [Compound 304] | 40
23 | CN(C)Cc1cncc(-c2ccc3[nH]nc(-c4nc5c(-c6ccsc6)cncc5[nH]4)c3c2)c1 [Compound 301] | 127
24 | O=C(Nc1cncc(-c2ccc3[nH]nc(-c4nc5c(-c6ccc(F)cc6)cncc5[nH]4)c3c2)c1)C1CCC1 [Compound 111] | 50
25 | CN(C)Cc1cncc(-c2ccc3[nH]nc(-c4nc5c(-c6cncc(F)c6)cncc5[nH]4)c3c2)c1 [Compound 16] | 134
26 | CC(C)CC(=O)Nc1cncc(-c2ccc3[nH]nc(-c4nc5c(-c6cccs6)cncc5[nH]4)c3c2)c1 [Compound 397] | 14
27 | CCC(=O)Nc1cncc(-c2ccc3[nH]nc(-c4nc5c(-c6ccccn6)cncc5[nH]4)c3c2)c1 [Compound 174] | 16
28 | CN(C)c1cncc(-c2ccc3[nH]nc(-c4nc5c(-c6ccsc6)cncc5[nH]4)c3c2)c1 [Compound 295] | 47
